Laboratory results published in patent US11849742B2, “Tasteful natural sweetener and flavor” (priority 2018, dated 2023).
Each block holds one compound with its values, some of them ahead of it.

Assays:
[1] = Kinetics of reaction: degradation of Phe and Reb-A, Gluc, Xyl, Suc at various pH-conditions (HPLC/MS); assay type: physicochemical
Description: Quantitative evaluation was performed using external standardization.
Kinetics of Reaction in dependence of pH-conditions

[2] = non-sugar natural sweeteners of Momordica grosvenori juice or extract; cited from earlier work
[3] = Assay to test reducing power (iron-III reduction); conditions: iron-III reduction and radical scavenging (FIG. 49, FIG. 50); amino acids and Reb-A, 100° C., pH 7.8
Description: 0.2 M Sodium phosphate buffer, pH=6.6; 500 mg Potassium ferric(III)cyanide/50 mL water, 10% Trichloroacetic acid; 20 mg Iron-III-Chloride/20 mL water; Calibration samples were prepared with Ascorbic acid in a concentration of 0-100 μg/mL 0.2 M Sodium phosphate buffer, pH=6.6 (freshly prepared); as negative control sample water was used.
Samples in aqueous solution were used as such or diluted in 0.2 M Sodium phosphate buffer, pH=6.6.
A 1 mL sample (or calibration standard) was mixed with 1 mL 0.2 M Sodium phosphate buffer, pH=6.6 and 1 ml Potassium ferricyanide solution. The sample was incubated and protected from light at 50° C. for 20 min.
To the solution was added 1 mL Trichloroacetic acid with thorough mixing.
A 1 mL of the mixture was diluted with 1 ml H2O and 0.2 ml Iron-III-chloride and reacted for 10 minutes; The absorbance was then determined at 700 nm against H2O.
10 mM of amino acid and/or 10 mM sugar were dissolved in 10 ml 0.1 mM KH2PO4-buffer, pH=7.8. […]
1 ml sample (or calibration standard) solution) was mixed with 0.2 M Sodium phosphate buffer (pH=6.6) and 1 ml Potassium ferric(III)cyanide solution in water (1% w/v) and incubated at 50° C. for 20 minutes. […] The sample was incubated for 10 minutes and absorbance read at 700 nm against a water control. […]
Quantification was performed by linear regression of calibration test results for ascorbic acid. […]

% degradation ([1]; pH = 5.5): 3.65%
% degradation ([1]; pH = 7.0): 4.6%
% degradation ([1]; pH = 8.5): 7.62%
Structure (SMILES): N[C@@H](CCC(=O)O)C(=O)O [Glu]

Structure (SMILES): OC[C@@H](O)[C@@H](O)[C@H](O)[C@H](O)CO [D-mannitol]
natural sweetness, times of that of sugar [2]: 0.55-0.65 times of that of sugar

Structure (SMILES): C=C1C[C@@]23CC[C@H]4[C@@](C)(CCC[C@@]4(C)C(=O)O[C@@H]4O[C@H](CO)[C@@H](O)[C@H](O)[C@H]4O)[C@@H]2CC[C@]1(O[C@@H]1O[C@H](CO)[C@@H](O)[C@H](O[C@@H]2O[C@H](CO)[C@@H](O)[C@H](O)[C@H]2O)[C@H]1O[C@@H]1O[C@H](CO)[C@@H](O)[C@H](O)[C@H]1O)C3 [Reb-A, Rebaudioside A]
anti-oxidant properties [3]: substantial anti-oxidant properties

Structure (SMILES): C[C@H](CC[C@@H](O[C@@H]1O[C@H](CO)[C@@H](O)[C@H](O)[C@H]1O[C@@H]1O[C@H](CO)[C@@H](O)[C@H](O)[C@H]1O)C(C)(C)O)[C@H]1CC[C@@]2(C)[C@H]3CC=C4[C@@H](CC[C@H](O[C@@H]5O[C@H](CO[C@@H]6O[C@H](CO)[C@@H](O)[C@H](O)[C@H]6O)[C@@H](O)[C@H](O)[C@H]5O)C4(C)C)[C@]3(C)[C@H](O)C[C@]12C [mogroside IV]
natural sweetness, times of that of sugar [2]: 126 times of that of sugar

Structure (SMILES): C[C@H](CC[C@@H](O[C@@H]1O[C@H](CO[C@@H]2O[C@H](CO)[C@@H](O)[C@H](O)[C@H]2O)[C@@H](O)[C@H](O)[C@H]1O[C@@H]1O[C@H](CO)[C@@H](O)[C@H](O)[C@H]1O)C(C)(C)O)[C@H]1CC[C@@]2(C)[C@@H]3CC=C4[C@@H](CC[C@H](O[C@@H]5O[C@H](CO[C@@H]6O[C@H](CO)[C@@H](O)[C@H](O)[C@H]6O)[C@@H](O)[C@H](O)[C@H]5O)C4(C)C)[C@]3(C)[C@H](O)C[C@]12C [mogroside V]
natural sweetness, times of that of sugar [2]: 256-344 times of that of sugar
